# Source: US11964988B2, “Fused heterocyclic compounds as RET kinase inhibitors” (ARRAY BIOPHARMA INC., priority 2018, dated 2024)
# pIC50: −log10 of the molar value.
# Columns and labels:
# RET kinase Wild Type = RET kinase Wild Type (Homo sapiens, UniProt P07949); experiment: biochemical;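 also: HTRF kinase activity assay on RET enzyme, 1 h reaction at 22 °C, dual-wavelength readout as percent of control, DMSO-only wells as 100%, pre-quenched reactions as 0%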
# G810S mutant RET kinase = G810S mutant RET kinase (Homo sapiens, UniProt P07949, G810S); experiment: biochemical;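 also: HTRF KinEASE-TK kinase assay with recombinant enzyme, 1 h at 22 °C, dual-wavelength ratiometric read-out, percent of control (DMSO-only = 100, pre-quenched reaction = 0)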
# RET kinase V804M = RET kinase V804M (Homo sapiens, UniProt P07949, V804M); experiment: RET Enzyme Assay (CisBio HTRF KinEASE-TK), V804M; format: biochemical; conditions: read-out: RET V804M Enz FRET IC50
# G810R mutant RET kinase = G810R mutant RET kinase (Homo sapiens, UniProt P07949, G810R); experiment: biochemical;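 also: HTRF KinEASE-TK enzymatic assay with 1 nM recombinant RET G810R, 1 h at 22 °C, dual-wavelength ratiometric readout, 100% control without compound, 0% from pre-quenched reactions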
# G810R mutant RET kinase, sequence (P07949 29-1114 G810R): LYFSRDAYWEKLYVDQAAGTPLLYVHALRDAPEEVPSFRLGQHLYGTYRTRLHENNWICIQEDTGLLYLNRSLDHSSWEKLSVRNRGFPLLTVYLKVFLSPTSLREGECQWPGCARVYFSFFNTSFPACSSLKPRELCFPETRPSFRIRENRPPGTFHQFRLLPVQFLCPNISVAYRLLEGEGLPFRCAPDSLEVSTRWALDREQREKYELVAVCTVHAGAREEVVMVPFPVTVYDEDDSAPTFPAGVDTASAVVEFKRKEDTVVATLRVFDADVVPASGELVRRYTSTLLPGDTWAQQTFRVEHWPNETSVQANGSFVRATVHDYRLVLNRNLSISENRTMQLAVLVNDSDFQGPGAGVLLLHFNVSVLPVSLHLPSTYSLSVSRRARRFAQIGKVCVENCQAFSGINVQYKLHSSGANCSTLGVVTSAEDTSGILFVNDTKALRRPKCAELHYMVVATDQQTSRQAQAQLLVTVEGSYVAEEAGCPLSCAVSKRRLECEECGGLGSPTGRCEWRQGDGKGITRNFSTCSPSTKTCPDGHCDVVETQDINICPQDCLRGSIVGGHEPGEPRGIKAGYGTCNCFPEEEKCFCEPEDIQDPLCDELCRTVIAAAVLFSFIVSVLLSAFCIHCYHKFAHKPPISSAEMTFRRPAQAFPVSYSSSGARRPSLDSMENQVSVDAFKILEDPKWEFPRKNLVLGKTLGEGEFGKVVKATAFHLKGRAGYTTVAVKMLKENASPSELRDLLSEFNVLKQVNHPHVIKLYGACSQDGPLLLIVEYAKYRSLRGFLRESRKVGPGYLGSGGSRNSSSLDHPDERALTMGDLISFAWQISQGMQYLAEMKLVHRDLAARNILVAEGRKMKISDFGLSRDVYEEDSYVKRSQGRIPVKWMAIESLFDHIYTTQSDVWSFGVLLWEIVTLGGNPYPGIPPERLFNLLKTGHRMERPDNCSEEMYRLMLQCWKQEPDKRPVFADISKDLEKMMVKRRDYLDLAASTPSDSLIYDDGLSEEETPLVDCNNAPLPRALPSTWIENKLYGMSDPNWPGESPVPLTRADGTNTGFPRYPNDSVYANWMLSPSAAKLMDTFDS
# RET kinase Wild Type, sequence (P07949 29-1114): as the sequence (P07949 29-1114 G810R) above, with R782G counted along it
# G810S mutant RET kinase, sequence (P07949 29-1114 G810S): as the sequence (P07949 29-1114 G810R) above, with R782S counted along it
# RET kinase V804M, sequence (P07949 29-1114 V804M): as the sequence (P07949 29-1114 G810R) above, with V776M, R782G counted along it
SMILES,pIC50 (RET kinase Wild Type),pIC50 (G810S mutant RET kinase),pIC50 (RET kinase V804M),pIC50 (G810R mutant RET kinase)
"CO[C@H]1CCc2c(c3c(N)ncnc3n2C(C)C)-c2noc(C3CC3)c21 (single isomer, unassigned) [Example 59]",6.56,6.07,6.13,6.51
"CC(C)n1c2c(c3c(N)ncnc31)-c1noc(C3CC3)c1C(=O)N(CCN1CCS(=O)(=O)CC1)C2 [Example 9, 11-amino-3-cyclopropyl-5-(2-(1,1-dioxidothiomorpholino)ethyl)-7-isopropyl-6,7-dihydroisoxazolo[4,3-c]pyrimido[5′,4′:4,5]pyrrolo[3,2-e]azepin-4(5H)-one]",6.99,6.53,6.27,6.65
"COc1ccc(CCN2Cc3c(c4c(N)ncnc4n3C(C)C)-c3noc(C4CC4)c3C2=O)cc1 [Example 14, 11-amino-3-cyclopropyl-7-isopropyl-5-(4-methoxyphenethyl)-6,7-dihydroisoxazolo[4,3-c]pyrimido[5′,4′:4,5]pyrrolo[3,2-e]azepin-4(5H)-one]",6.95,6.53,6.06,6.60
"CC(C)n1c2c(c3c(N)ncnc31)-c1noc(C3CC3)c1C(=O)N(CCc1cnn(C)c1)C2 [Example 16, 11-amino-3-cyclopropyl-7-isopropyl-5-(2-(1-methyl-1H-pyrazol-4-yl)ethyl)-6,7-dihydroisoxazolo[4,3-c]pyrimido[5′,4′:4,5]pyrrolo[3,2-e]azepin-4(5H)-one]",6.69,6.19,5.75,6.45
"CC(C)n1c2c(c3c(N)ncnc31)-c1noc(C3CC3)c1C(=O)N(C1CCN(Cc3ccccc3)C1)C2 (centres unmarked) [Example 17, 11-amino-5-(1-benzylpyrrolidin-3-yl)-3-cyclopropyl-7-isopropyl-6,7-dihydroisoxazolo[4,3-c]pyrimido[5′,4′:4,5]pyrrolo[3,2-e]azepin-4(5H)-one]",7.31,6.36,6.62,6.27
"CC(C)n1c2c(c3c(N)ncnc31)-c1noc(C3CC3)c1C(=O)N(c1cnn(C)c1)C2 [Example 18, 11-amino-3-cyclopropyl-7-isopropyl-5-(1-methyl-1H-pyrazol-4-yl)-6,7-dihydroisoxazolo[4,3-c]pyrimido[5′,4′:4,5]pyrrolo[3,2-e]azepin-4(5H)-one]",6.82,6.40,6.16,6.60
"CNC1CCc2c(c3c(N)ncnc3n2C(C)C)-c2noc(C3CC3)c21 (centres unmarked) [Example 27, 3-cyclopropyl-7-isopropyl-N4-methyl-4,5,6,7-tetrahydroisoxazolo[4″,3″:6′,7′]cyclohepta[1′,2′:4,5]pyrrolo[2,3-d]pyrimidine-4,11-diamine]",6.85,6.24,6.23,6.51
"CC(C)n1c2c(c3c(N)ncnc31)-c1noc(C3CC3)c1CN(C)C2 [Example 31, 3-cyclopropyl-7-isopropyl-5-methyl-4,5,6,7-tetrahydroisoxazolo[4,3-c]pyrimido[5′,4′:4,5]pyrrolo[3,2-e]azepin-11-amine]",6.24,5.88,5.66,5.88
"CC(C)n1c2c(c3c(N)ncnc31)-c1noc(C3CC3)c1CN(c1ccn(C)n1)C2 [Example 34, 3-cyclopropyl-7-isopropyl-5-(1-methyl-1H-pyrazol-3-yl)-4,5,6,7-tetrahydroisoxazolo[4,3-c]pyrimido[5′,4′:4,5]pyrrolo[3,2-e]azepin-11-amine]",6.64,6.40,6.09,6.54
"CCC(=O)N1Cc2c(noc2C2CC2)-c2c(n(C(C)C)c3ncnc(N)c23)C1 [Example 37, 1-(11-amino-3-cyclopropyl-7-isopropyl-6,7-dihydroisoxazolo[4,3-c]pyrimido[5′,4′:4,5]pyrrolo[3,2-e]azepin-5(4H)-yl)propan-1-one 2,2,2-trifluoroacetate]",6.50,5.91,–,5.89
"CC(C)n1c2c(c3c(N)ncnc31)-c1noc(C3CC3)c1CN(C(=O)C1CC1)C2 [Example 38, (11-amino-3-cyclopropyl-7-isopropyl-6,7-dihydroisoxazolo[4,3-c]pyrimido[5′,4′:4,5]pyrrolo[3,2-e]azepin-5(4H)-yl)(cyclopropyl)methanone]",6.47,6.04,5.51,6.19
"CC(C)n1c2c(c3c(N)ncnc31)-c1noc(C3CC3)c1CN(C(=O)Cc1ccccc1)C2 [Example 39, 1-(11-amino-3-cyclopropyl-7-isopropyl-6,7-dihydroisoxazolo[4,3-c]pyrimido[5′,4′:4,5]pyrrolo[3,2-e]azepin-5(4H)-yl)-2-phenylethan-1-one]",6.05,5.38,–,5.51
"CC(C)n1c2c(c3c(N)ncnc31)-c1noc(C3CC3)c1CN(CCO)C2 [Example 40, 2-(11-amino-3-cyclopropyl-7-isopropyl-6,7-dihydroisoxazolo[4,3-c]pyrimido[5′,4′:4,5]pyrrolo[3,2-e]azepin-5(4H)-yl)ethan-1-ol 2,2,2-trifluoroacetate]",6.21,6.01,5.66,6.14
"CC(C)n1c2c(c3c(N)ncnc31)-c1ccc(NC(=O)CC3CC3)cc1C(=O)NC2 [Example 48, N-(12-amino-8-isopropyl-5-oxo-5,6,7,8-tetrahydrobenzo[c]pyrimido[5′,4′:4,5]pyrrolo[3,2-e]azepin-3-yl)-2-cyclopropylacetamide]",5.61,–,–,5.10
"CC(C)n1c2c(c3c(N)ncnc31)-c1ccc(NC(=O)NC3CC3)cc1C(=O)NC2 [Example 49, 1-(12-amino-8-isopropyl-5-oxo-5,6,7,8-tetrahydrobenzo[c]pyrimido[5′,4′:4,5]pyrrolo[3,2-e]azepin-3-yl)-3-cyclopropylurea]",5.07,–,–,–
"CC(C)n1c2c(c3c(N)ncnc31)-c1ccc(Cl)c(F)c1C(=O)NC2 [Example 50, 12-amino-3-chloro-4-fluoro-8-isopropyl-7,8-dihydrobenzo[c]pyrimido[5′,4′:4,5]pyrrolo[3,2-e]azepin-5(6H)-one]",5.66,5.29,–,5.59
"CC(C)n1c2c(c3c(N)ncnc31)-c1cc3cc(C#N)ccc3n1C(=O)NC2 [Example 78, 1-amino-5-isopropyl-8-oxo-5,6,7,8-tetrahydropyrimido[5″,4″:4′,5′]pyrrolo[2′,3′: 5,6][1,3]diazepino[1,7-a]indole-12-carbonitrile]",6.20,6.14,–,6.29
"COc1ccc2cc3n(c2c1)C(=O)NCc1c-3c2c(N)ncnc2n1C(C)C [Example 79, 1-amino-5-isopropyl-11-methoxy-6,7-dihydropyrimido[5″,4″:4′,5′]pyrrolo[2′,3′: 5,6][1,3]diazepino[1,7-a]indol-8(5H)-one]",6.45,6.23,–,6.57
"Cc1ccc2cc3n(c2c1)C(=O)NCc1c-3c2c(N)ncnc2n1C(C)C [Example 80, 1-amino-5-isopropyl-11-methyl-6,7-dihydropyrimido[5″,4″:4′,5′]pyrrolo[2′,3′: 5,6][1,3]diazepino[1,7-a]indol-8(5H)-one]",6.71,6.39,–,6.49
"CC(C)n1c2c(c3c(N)ncnc31)-c1cc3ccc(C(F)(F)F)cc3n1C(=O)NC2 [Example 82, 1-amino-5-isopropyl-11-(trifluoromethyl)-6,7-dihydropyrimido[5″,4″:4′,5′]pyrrolo[2′,3′: 5,6][1,3]diazepino[1,7-a]indol-8(5H)-one]",6.45,6.09,–,6.38
"CC(C)n1c2c(c3c(N)ncnc31)-c1cc3ccc(Cl)cc3n1C(=O)NC2 [Example 84, 1-amino-11-chloro-5-isopropyl-6,7-dihydropyrimido[5″,4″:4′,5′]pyrrolo[2′,3′: 5,6][1,3]diazepino[1,7-a]indol-8(5H)-one]",6.74,6.20,–,6.61
"COc1ccc2c(c1)cc1n2C(=O)NCc2c-1c1c(N)ncnc1n2C(C)C [Example 85, 1-amino-5-isopropyl-12-methoxy-6,7-dihydropyrimido[5″,4″:4′,5′]pyrrolo[2′,3′:5,6][1,3]diazepino[1,7-a]indol-8(5H)-one]",6.41,6.02,–,6.30
"Cc1cc(NC(=O)c2ccc3cc4n(c3c2)CCCc2c-4c3c(N)ncnc3n2C(C)C)nn1C [Example 98, 1-amino-N-(1,5-dimethyl-1H-pyrazol-3-yl)-5-isopropyl-5,6,7,8-tetrahydropyrimido[5″,4″:4′,5′]pyrrolo[3′,2′: 3,4]azepino[1,2-a]indole-11-carboxamide]",5.66,5.10,–,5.39
"CC(C)n1c2c(c3c(N)ncnc31)-c1cc3ccc(C(=O)Nc4ccn(CC(=O)N(C)C)n4)cc3n1CCC2 [Example 99, 1-amino-N-(1-(2-(dimethylamino)-2-oxoethyl)-1H-pyrazol-3-yl)-5-isopropyl-5,6,7,8-tetrahydropyrimido[5″,4″:4′,5′]pyrrolo[3′,2′: 3,4]azepino[1,2-a]indole-11-carboxamide]",6.06,5.49,–,5.66
"CC(C)n1c2c(c3c(N)ncnc31)-c1cc(C3CC3)nn1C(=O)NC2 [Example 106, 12-Amino-2-cyclopropyl-8-isopropyl-7,8-dihydropyrazolo[1,5-c]pyrimido[5′,4′:4,5]pyrrolo[3,2-e][1,3]diazepin-5(6H)-one]",6.39,5.49,–,5.62
"CC(C)n1c2c(c3c(N)ncnc31)-c1cnn(C3CC3)c1C(=O)NC2 [Example 109, 11-amino-3-cyclopropyl-7-isopropyl-3,5,6,7-tetrahydro-4H-pyrazolo[3,4-c]pyrimido[5′,4′:4,5]pyrrolo[3,2-e]azepin-4-one 2,2,2-trifluoroacetate]",5.75,5.64,–,5.74
